According to patent US20060154990A1, “Use of MEK inhibitors in treating abnormal cell growth” (AGOURON PHARMACEUTICALS, INC., priority 2004, published 2006):
“And” between values parts separate entries of the source, which are not always exact repeats. Equal entries are not always repeated.

Legend:
pERK in tumor biopsies = experiment: Immunohistochemical analysis of pERK in paired tumor biopsies; details: for pERK Post-Treatment: H-score
Excerpt: The phosphorylation status of ERK can be assessed through antibody-based detection methods, utilizing phosphorylation site-specific antibodies. […] The biopsy tissues were paraffin-embedded following standard tissue processing. The antibody used for detection of pERK was the mouse monoclonal anti-MAP kinase (activated) antibody, manufactured by Sigma-Aldrich Co. (catalog number: M8159). This antibody is reacts specifically with the dually phosphorylated form of MAPK (both the ERK-1 and ERK-2 forms). Tissue sections prepared from the paraffin blocks were pretreated with Heat-induced Epitope Retrieval conditions (3 minutes at 120° C.) prior to the detection procedure. […] Staining intensity was grouped in categories from 0 to 3+, with 0 being little or no staining, and 3 being the most intense staining. […] For each biopsy specimen, 2 sections were analyzed and the average of these was taken for the pERK H-score. In addition to H-scores, the total % of positive cells was also recorded.

[1] = Plasma pharmacokinetics after multiple oral doses in advanced cancer patients
Description: Pharmacokinetic data are presented for the first 38 subjects.
Blood samples were collected from patients into a purple-top potassium EDTA Vacutainer tube. Following mixing with gentle inversion (8-10 times), tubes were centrifuged within 20 minutes at 1000×g for 15 minutes, to harvest plasma. Plasma samples were stored at −20° C. until analysis.
The following results are based on preliminary pharmacokinetic parameters from the 38 subjects, estimated using nominal collection times and quality-controlled, non quality-assured bioanalytical data. Pharmacokinetic parameters were determined by the non-compartmental method using WINNONLIN Professional Edition (Version 4.1). […] The maximum observed concentration (Cmax) was obtained by inspection of the concentration data. The time to reach the Cmax was the first time at which Cmax is observed and obtained by inspection of the data. The pre-dose concentration (Ctrough) was obtained by inspection of the concentration data.

[2] = 4 mg BID, lung, individual patient
[3] = 4 mg BID, melanoma, individual patient
[4] = 8 mg BID, breast, individual patient
[5] = 15 mg BID, breast, individual patient
[6] = 15 mg BID, melanoma, individual patient
[7] = 20 mg BID continuous, melanoma, individual patients
[8] = 20 mg BID, melanoma, individual patient
[9] = 30 mg BID, colon, individual patient
[10] = 30 mg BID, melanoma, individual patients
[11] = 1 mg QD, breast, individual patient
[12] = 1 mg QD, melanoma, individual patients
[13] = 2 mg BID, colon, individual patient
[14] = 2 mg BID, lung, individual patient
[15] = 2 mg BID, melanoma, individual patients
[16] = 1 mg BID, melanoma, individual patient
[17] = 30 mg BID, melanoma, individual patient
[18] = patients, 1 mg BID, C1D21, fasting, mean
[19] = patients, 1 mg QD, C1D21, fasting, mean
[20] = patients, 2 mg BID, C1D21, fasting, mean
[21] = patients, 15 mg BID, C1D21, fasting, mean
[22] = patients, 20 mg BID continuous, C1D21, fasting, mean

## O=C(NOC[C@H](O)CO)c1ccc(F)c(F)c1Nc1ccc(I)cc1F [Compound 1, N-[(R)-2,3-dihydroxy-propoxy]-3,4-difluoro-2-(2-fluoro-4-iodo-phenylamino)-benzamide]
pERK in tumor biopsies; [2]
  pERK % Reduction from Baseline: −100%
  pERK Post-Treatment: 0
pERK in tumor biopsies; [3]
  pERK % Reduction from Baseline: −70%
  pERK Post-Treatment: 50
pERK in tumor biopsies; [4]
  pERK % Reduction from Baseline: −93%
  pERK Post-Treatment: 5
pERK in tumor biopsies; [5]
  pERK % Reduction from Baseline: −9%
  pERK Post-Treatment: 150
pERK in tumor biopsies; [6]
  pERK % Reduction from Baseline: −100%
  pERK Post-Treatment: 0
pERK in tumor biopsies; [7]
  pERK % Reduction from Baseline: −100% and −72% and −18%
  pERK Post-Treatment: 0 and 23 and 45
pERK in tumor biopsies; [8]
  pERK % Reduction from Baseline: −100%
  pERK Post-Treatment: 1
pERK in tumor biopsies; [9]
  pERK % Reduction from Baseline: −91%
  pERK Post-Treatment: 3
pERK in tumor biopsies; [10]
  pERK % Reduction from Baseline: −4% and −87%
  pERK Post-Treatment: 70 and 15
pERK in tumor biopsies; 1 mg BID, melanoma, individual patients
  pERK Post-Treatment: 45 and 40
pERK in tumor biopsies; [11]
  pERK Post-Treatment: 135
pERK in tumor biopsies; [12]
  pERK Post-Treatment: 3 and 78
pERK in tumor biopsies; [13]
  pERK Post-Treatment: 12
pERK in tumor biopsies; [14]
  pERK Post-Treatment: 8
pERK in tumor biopsies; [15]
  pERK Post-Treatment: 10 and 0
[1]; [16]
  Compound 1 AUC(0-24), Day 21: 275 ng·h/mL
  Compound 1 Css, avg: 11 ng/mL
[1]; [11]
  Compound 1 AUC(0-24), Day 21: 130 ng·h/mL
  Compound 1 Css, avg: 5.4 ng/mL
[1]; [12]
  Compound 1 AUC(0-24), Day 21: 170 ng·h/mL and 112 ng·h/mL
  Compound 1 Css, avg: 7.1 ng/mL and 4.7 ng/mL
[1]; [13]
  Compound 1 AUC(0-24), Day 21: 898 ng·h/mL
  Compound 1 Css, avg: 37 ng/mL
[1]; [14]
  Compound 1 AUC(0-24), Day 21: 943 ng·h/mL
  Compound 1 Css, avg: 39 ng/mL
[1]; [15]
  Compound 1 AUC(0-24), Day 21: 785 ng·h/mL and 2020 ng·h/mL
  Compound 1 Css, avg: 33 ng/mL and 84 ng/mL
[1]; [2]
  Compound 1 AUC(0-24), Day 21: 1974 ng·h/mL
[1]; [3]
  Compound 1 AUC(0-24), Day 21: 1426 ng·h/mL
  Compound 1 Css, avg: 59 ng/mL
[1]; [5]
  Compound 1 AUC(0-24), Day 21: 7680 ng·h/mL
  Compound 1 Css, avg: 320.0 ng/mL
[1]; [6]
  Compound 1 AUC(0-24), Day 21: 2480 ng·h/mL
  Compound 1 Css, avg: 103.3 ng/mL
[1]; [7]
  Compound 1 AUC(0-24), Day 21: 5480 ng·h/mL and 5800 ng·h/mL
  Compound 1 Css, avg: 228.3 ng/mL and 241.7 ng/mL
[1]; [8]
  Compound 1 AUC(0-24), Day 21: 10560 ng·h/mL
[1]; [9]
  Compound 1 AUC(0-24), Day 21: 12000 ng·h/mL
[1]; [17]
  Compound 1 AUC(0-24), Day 21: 12920 ng·h/mL
  Compound 1 Css, avg: 538.3 ng/mL
[1]; fasted state, inter-subject variability
  overall coefficient of variation (CV) for AUC(0-24): 39%
[1]; patients
  elimination plasma half-life: 5 to 16 h
[1]; [18]
  AUC(0-24): 338 ng·h/mL
  Ctrough: 9.17 ng/mL
[1]; [19]
  AUC(0-24): 143 ng·h/mL
  Cmax: 22.3 ng/mL
  Ctrough: 3.00 ng/mL
  Tmax: 2 h
[1]; [20]
  AUC(0-24): 1161 ng·h/mL
  Ctrough: 27.4 ng/mL
[1]; patients, 4 mg BID, C1D21, fasting, mean
  Ctrough: 28.0 ng/mL
[1]; [21]
  AUC(0-24): 5687 ng·h/mL
  Ctrough: 142 ng/mL
[1]; [22]
  AUC(0-24): 6572 ng·h/mL
  Cmax: 989 ng/mL
  Ctrough: 83.7 ng/mL
  T1/2: 5.1 h
  Tmax: 2 h
[1]; patients, 20 mg BID, C1D21, fasting, mean
  Ctrough: 112 ng/mL
[1]; patients, 30 mg BID, C1D21, fasting, mean
  Ctrough: 157 ng/mL
